Assay results from article PMC4020744, “Modification, Biological Evaluation and 3D QSAR Studies of Novel 2-(1,3-Diaryl- 4,5-Dihydro-1H-Pyrazol-5-yl)Phenol Derivatives as Inhibitors of B-Raf Kinase” (PLoS ONE, 2014).

Key:
[1] = target: B-Raf^V600E; test: V600E mutant B-Raf kinase inhibitory assay (B-Raf^V600E mediated MEK phosphorylation)
Description: Briefly, 7.5 ng Mouse Full-Length GST-tagged BRAF^V600E (Invitrogen, PV3849) was preincubated at room temperature for 1 h with 1 µL drug and 4 µL assay dilution buffer. The kinase assay was initiated when 5 µL of a solution containing 200 ng recombinant human full length, N-terminal His-tagged MEK1 (Invitrogen), 200 µM ATP, and 30 mM MgCl2 in assay dilution buffer was added. The kinase reaction was allowed to continue at room temperature for 25 min and was then quenched with 5 µL 5x protein denaturing buffer (LDS) solution. Protein was further denatured by heating for 5 min at 70°C. 10 µL of each reaction was loaded into a 15-well, 4–12% precast NuPage gel (Invitrogen) and run at 200 V, and upon completion, the front, which contained excess hot ATP, was cut from the gel and discarded. The gel was then dried and developed onto a phosphor screen.

[2] = test system: WM266.4 human melanoma cell line; test: Anti-proliferation assay (MTT); type: cell-based; conditions: WM 266-4, WM266.4 human melanoma cell growth, 24 h
Description: WM266.4 melanoma cells were cultured in DMEM/10% fetal bovine serum, in 5% CO2 water saturated atmosphere at 37°C. Cell suspensions (10000/mL) were prepared and 100 µL/well dispensed into 96-well plates (Costar) giving 1000 cells/well. The plates were returned to the incubator for 24h to allow the cells to reattach. These compounds were initially prepared at 20mM in DMSO. Aliquots (200 µL) were diluted into 20mL culture medium giving 200 µM, and 10 serial dilutions of 3x prepared. Aliquots (100 µL) of each dilution were added to the wells, giving doses ranging from 100 µM to 0.005 µM. After a further incubated at 37°C for 24h in a humidified atmosphere with 5% CO2, the cell viability was assessed by the conventional 3-(4,5-dimethylthiazol-2-yl)-2,5-diphenyltetrazolium bromide (MTT) reduction assay and carried out strictly according to the manufacturer instructions (Sigma). The absorbance at 590nm was recorded using LX300 Epson Diagnostic micro-plate reader. Then GI50 was calculated using SPSS 13.0 software.

Chain of B-Raf^V600E (P28028 whole entry V585E): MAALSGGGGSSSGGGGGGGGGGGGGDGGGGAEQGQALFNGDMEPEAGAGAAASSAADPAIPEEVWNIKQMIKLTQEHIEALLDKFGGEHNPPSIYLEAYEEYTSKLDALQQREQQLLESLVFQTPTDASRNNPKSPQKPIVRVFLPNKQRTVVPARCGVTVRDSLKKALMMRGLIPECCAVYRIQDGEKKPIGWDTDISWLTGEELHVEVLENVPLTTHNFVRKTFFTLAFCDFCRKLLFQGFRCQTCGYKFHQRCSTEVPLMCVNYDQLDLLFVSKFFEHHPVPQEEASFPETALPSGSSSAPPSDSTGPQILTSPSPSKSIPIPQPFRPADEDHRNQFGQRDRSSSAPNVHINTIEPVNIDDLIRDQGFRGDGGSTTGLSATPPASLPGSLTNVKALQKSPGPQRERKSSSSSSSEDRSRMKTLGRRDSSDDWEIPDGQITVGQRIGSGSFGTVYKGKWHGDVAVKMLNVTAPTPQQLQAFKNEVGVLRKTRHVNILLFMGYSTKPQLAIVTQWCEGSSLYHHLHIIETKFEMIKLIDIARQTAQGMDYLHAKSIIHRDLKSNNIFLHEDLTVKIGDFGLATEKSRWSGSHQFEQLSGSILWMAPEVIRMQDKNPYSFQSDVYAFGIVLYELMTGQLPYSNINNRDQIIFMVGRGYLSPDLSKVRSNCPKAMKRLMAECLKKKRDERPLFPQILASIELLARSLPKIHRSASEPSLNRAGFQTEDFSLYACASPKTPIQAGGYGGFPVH

SMILES	melting point	IC50 [1]	GI50 [2]
COc1ccc(C2=NN(c3ccccc3)C(c3ccccc3O)C2)cc1 (centres unmarked) [Compound C5, 2-(3-(4-methoxyphenyl)-1-phenyl-4,5-dihydro-1H-pyrazol-5-yl)phenol]	35 to 37 °C	510 ± 50 nM	1980 ± 170 nM
Cc1ccc(C2=NN(c3ccccc3)C(c3cc(Cl)ccc3O)C2)cc1 (centres unmarked) [Compound C10, 4-chloro-2-(1-phenyl-3-(p-tolyl)-4,5-dihydro-1H-pyrazol-5-yl)phenol]	43 to 46 °C	3240 ± 280 nM	5370 ± 490 nM
Oc1ccc(Br)cc1C1CC(c2ccc(Cl)cc2)=NN1c1ccccc1 (centres unmarked) [Compound C14, 4-bromo-2-(3-(4-chlorophenyl)-1-phenyl-4,5-dihydro-1H-pyrazol-5-yl)phenol]	88 to 91 °C	2200 ± 200 nM	3690 ± 320 nM
Oc1ccccc1C1CC(c2ccc(Cl)c(Cl)c2)=NN1c1ccccc1 (centres unmarked) [Compound C6, 2-(3-(3,4-dichlorophenyl)-1-phenyl-4,5-dihydro-1H-pyrazol-5-yl)phenol]	57 to 59 °C	150 ± 10 nM	1750 ± 120 nM
Oc1ccc(Br)cc1C1CC(c2ccc(Cl)c(Cl)c2)=NN1c1ccccc1 (centres unmarked) [Compound C18, 4-bromo-2-(3-(3,4-dichlorophenyl)-1-phenyl-4,5-dihydro-1H-pyrazol-5-yl)phenol]	95 to 98 °C	340 ± 20 nM	1880 ± 150 nM
Oc1c(Cl)cc(Cl)cc1C1CC(c2ccc(F)cc2)=NN1c1ccccc1 (centres unmarked) [Compound C19, 2,4-dichloro-6-(3-(4-fluorophenyl)-1-phenyl-4,5-dihydro-1H-pyrazol-5-yl)phenol]	37 to 39 °C	2260 ± 190 nM	3760 ± 320 nM
Cc1ccc(C2=NN(c3ccccc3)C(c3cc(Cl)cc(Cl)c3O)C2)cc1 (centres unmarked) [Compound C22, 2,4-dichloro-6-(1-phenyl-3-(p-tolyl)-4,5-dihydro-1H-pyrazol-5-yl)phenol]	29 to 31 °C	7370 ± 650 nM	23900 ± 1990 nM
C#Cc1cccc(Nc2ncnc3cc(OCCOC)c(OCCOC)cc23)c1 [Erlotinib, reference compound]	–	–	8120 ± 750 nM
Oc1ccc(Cl)cc1C1CC(c2ccc(F)cc2)=NN1c1ccccc1 (centres unmarked) [Compound C7, 4-chloro-2-(3-(4-fluorophenyl)-1-phenyl-4,5-dihydro-1H-pyrazol-5-yl)phenol]	60 to 63 °C	2600 ± 230 nM	4260 ± 360 nM
Oc1ccc(Cl)cc1C1CC(c2ccc(Br)cc2)=NN1c1ccccc1 (centres unmarked) [Compound C9, 2-(3-(4-bromophenyl)-1-phenyl-4,5-dihydro-1H-pyrazol-5-yl)-4-chlorophenol]	90 to 93 °C	1370 ± 130 nM	2730 ± 210 nM
Oc1c(Cl)cc(Cl)cc1C1CC(c2ccc(Cl)cc2)=NN1c1ccccc1 (centres unmarked) [Compound C20, 2,4-dichloro-6-(3-(4-chlorophenyl)-1-phenyl-4,5-dihydro-1H-pyrazol-5-yl)phenol]	42 to 43 °C	2140 ± 190 nM	3590 ± 280 nM
COc1ccc(C2=NN(c3ccccc3)C(c3cc(Br)ccc3O)C2)cc1 (centres unmarked) [Compound C17, 4-bromo-2-(3-(4-methoxyphenyl)-1-phenyl-4,5-dihydro-1H-pyrazol-5-yl)phenol]	65 to 67 °C	570 ± 50 nM	2030 ± 180 nM
COc1ccc(C2=NN(c3ccccc3)C(c3cc(Cl)cc(Cl)c3O)C2)cc1 (centres unmarked) [Compound C23, 2,4-dichloro-6-(3-(4-methoxyphenyl)-1-phenyl-4,5-dihydro-1H-pyrazol-5-yl)phenol]	33 to 34 °C	1010 ± 80 nM	2380 ± 230 nM
Oc1ccc(Cl)cc1C1CC(c2ccc(Cl)c(Cl)c2)=NN1c1ccccc1 (centres unmarked) [Compound C12, 4-chloro-2-(3-(3,4-dichlorophenyl)-1-phenyl-4,5-dihydro-1H-pyrazol-5-yl)phenol]	77 to 79 °C	500 ± 50 nM	1990 ± 130 nM
Cc1ccc(C2=NN(c3ccccc3)C(c3cc(Br)ccc3O)C2)cc1 (centres unmarked) [Compound C16, 4-bromo-2-(1-phenyl-3-(p-tolyl)-4,5-dihydro-1H-pyrazol-5-yl)phenol]	59 to 63 °C	2780 ± 210 nM	4550 ± 440 nM
Oc1ccc(Cl)cc1C1CC(c2ccc(Cl)cc2)=NN1c1ccccc1 (centres unmarked) [Compound C8, 4-chloro-2-(3-(4-chlorophenyl)-1-phenyl-4,5-dihydro-1H-pyrazol-5-yl)phenol]	68 to 71 °C	2660 ± 190 nM	4390 ± 310 nM
Oc1ccc(Br)cc1C1CC(c2ccc(F)cc2)=NN1c1ccccc1 (centres unmarked) [Compound C13, 4-bromo-2-(3-(4-fluorophenyl)-1-phenyl-4,5-dihydro-1H-pyrazol-5-yl)phenol]	73 to 76 °C	2730 ± 190 nM	4450 ± 410 nM
COc1ccc(C2=NN(c3ccccc3)C(c3cc(Cl)ccc3O)C2)cc1 (centres unmarked) [Compound C11, 4-chloro-2-(3-(4-methoxyphenyl)-1-phenyl-4,5-dihydro-1H-pyrazol-5-yl)phenol]	49 to 51 °C	1070 ± 80 nM	2430 ± 160 nM
Oc1ccccc1C1CC(c2ccc(F)cc2)=NN1c1ccccc1 (centres unmarked) [Compound C1, 2-(3-(4-fluorophenyl)-1-phenyl-4,5-dihydro-1H-pyrazol-5-yl)phenol]	38 to 41 °C	71900 ± 6770 nM	> 50000 nM
Cc1ccc(C2=NN(c3ccccc3)C(c3ccccc3O)C2)cc1 (centres unmarked) [Compound C4, 2-(1-phenyl-3-(p-tolyl)-4,5-dihydro-1H-pyrazol-5-yl)phenol]	32 to 34 °C	1490 ± 110 nM	2850 ± 230 nM
Oc1ccc(Br)cc1C1CC(c2ccc(Br)cc2)=NN1c1ccccc1 (centres unmarked) [Compound C15, 4-bromo-2-(3-(4-bromophenyl)-1-phenyl-4,5-dihydro-1H-pyrazol-5-yl)phenol]	104 to 106 °C	1290 ± 100 nM	2650 ± 190 nM
Oc1c(Cl)cc(Cl)cc1C1CC(c2ccc(Cl)c(Cl)c2)=NN1c1ccccc1 (centres unmarked) [Compound C24, 2,4-dichloro-6-(3-(3,4-dichlorophenyl)-1-phenyl-4,5-dihydro-1H-pyrazol-5-yl)phenol]	63 to 65 °C	970 ± 90 nM	2340 ± 170 nM
Oc1ccccc1C1CC(c2ccc(Cl)cc2)=NN1c1ccccc1 (centres unmarked) [Compound C2, 2-(3-(4-chlorophenyl)-1-phenyl-4,5-dihydro-1H-pyrazol-5-yl)phenol]	54 to 56 °C	500 ± 40 nM	2010 ± 130 nM
Oc1c(Cl)cc(Cl)cc1C1CC(c2ccc(Br)cc2)=NN1c1ccccc1 (centres unmarked) [Compound C21, 2-(3-(4-bromophenyl)-1-phenyl-4,5-dihydro-1H-pyrazol-5-yl)-4,6-dichlorophenol]	56 to 59 °C	3120 ± 260 nM	5130 ± 490 nM
CCCS(=O)(=O)Nc1ccc(F)c(C(=O)c2c[nH]c3ncc(-c4ccc(Cl)cc4)cc23)c1F [Vemurafenib, reference compound]	–	–	210 ± 20 nM
Oc1ccccc1C1CC(c2ccc(Br)cc2)=NN1c1ccccc1 (centres unmarked) [Compound C3, 2-(3-(4-bromophenyl)-1-phenyl-4,5-dihydro-1H-pyrazol-5-yl)phenol]	65 to 68 °C	630 ± 60 nM	2090 ± 180 nM
